In publication PMC9950073, “Alleviation of arthritis through prevention of neutrophil extracellular traps by an orally available inhibitor of protein arginine deiminase 4” (Scientific Reports, 2023):
Values after ≈ are worked out from the molar mass of the structure shown.

Tests used:
[1] = target: T1, human recombinant PAD1 (Homo sapiens, UniProt Q9ULC6); assay: PAD1 selectivity biochemical assay measuring ammonia release; details: 10 semi-log concentrations, highest concentration tested 30 µM
T1 construct: purchased Cayman Chemicals 10784
T1 sequence (Q9ULC6 1-663): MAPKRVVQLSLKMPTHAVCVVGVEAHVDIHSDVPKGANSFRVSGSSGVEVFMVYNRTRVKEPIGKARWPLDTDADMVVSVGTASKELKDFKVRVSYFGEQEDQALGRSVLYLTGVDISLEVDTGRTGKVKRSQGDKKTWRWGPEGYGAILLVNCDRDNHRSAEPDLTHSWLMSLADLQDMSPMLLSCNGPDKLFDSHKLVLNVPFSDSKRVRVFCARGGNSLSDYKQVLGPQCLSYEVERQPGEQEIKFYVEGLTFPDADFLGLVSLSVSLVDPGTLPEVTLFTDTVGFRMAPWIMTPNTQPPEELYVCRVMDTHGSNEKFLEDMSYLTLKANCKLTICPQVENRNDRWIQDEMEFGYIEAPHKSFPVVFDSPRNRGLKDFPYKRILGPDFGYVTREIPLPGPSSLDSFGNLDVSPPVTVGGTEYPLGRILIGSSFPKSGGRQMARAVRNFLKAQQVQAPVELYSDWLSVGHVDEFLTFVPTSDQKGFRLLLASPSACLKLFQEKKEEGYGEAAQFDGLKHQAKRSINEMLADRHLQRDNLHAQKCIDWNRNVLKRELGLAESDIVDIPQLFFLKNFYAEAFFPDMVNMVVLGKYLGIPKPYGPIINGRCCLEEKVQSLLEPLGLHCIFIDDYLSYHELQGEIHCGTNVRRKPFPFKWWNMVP

[2] = target: T2, human recombinant PAD6 (Homo sapiens, UniProt Q6TGC4); assay: PAD6 selectivity biochemical assay measuring ammonia release; details: 10 semi-log concentrations, highest concentration tested 30 µM
T2 construct: purchased Signal Chem T1065-3
T2 sequence (Q6TGC4 1-694): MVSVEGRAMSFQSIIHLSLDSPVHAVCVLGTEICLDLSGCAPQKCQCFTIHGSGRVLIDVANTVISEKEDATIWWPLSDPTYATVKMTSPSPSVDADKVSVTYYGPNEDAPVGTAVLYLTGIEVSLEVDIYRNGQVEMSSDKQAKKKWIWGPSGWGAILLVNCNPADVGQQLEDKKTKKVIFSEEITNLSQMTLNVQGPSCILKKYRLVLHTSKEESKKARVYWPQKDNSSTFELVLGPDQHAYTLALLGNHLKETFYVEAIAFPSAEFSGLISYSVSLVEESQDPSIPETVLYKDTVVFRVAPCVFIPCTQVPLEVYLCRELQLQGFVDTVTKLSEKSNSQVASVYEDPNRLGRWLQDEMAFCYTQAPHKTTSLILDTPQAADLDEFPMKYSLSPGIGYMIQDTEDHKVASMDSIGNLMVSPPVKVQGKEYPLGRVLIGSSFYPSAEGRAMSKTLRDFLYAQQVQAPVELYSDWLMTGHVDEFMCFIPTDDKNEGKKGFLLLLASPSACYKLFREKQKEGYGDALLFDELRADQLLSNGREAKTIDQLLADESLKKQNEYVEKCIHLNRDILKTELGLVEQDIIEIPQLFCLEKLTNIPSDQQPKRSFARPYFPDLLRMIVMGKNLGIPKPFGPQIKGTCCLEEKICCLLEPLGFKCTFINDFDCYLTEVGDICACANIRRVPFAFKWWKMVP

[3] = test system: human neutrophils; assay: Cell Titer Glo viability assay, neutrophils; format: cell-based; details: 24 h, up to 10 µM
From the text: All blood samples from healthy donors who participated in this study were obtained after informed consent in accordance with relevant guidelines and regulations given by the ACE Independent ethics committee for Jubilant Biosys Ltd and Office of Clinical Investigations at Boston Children’s Hospital. The ACE Independent ethics committee, Bangalore, approved the use of human whole blood/PBMC/Enriched Subset in Jubilant Biosys Ltd investigations, Drug Controller General of India (DCGI) Reg No. ECR/141/Indt/KA/2013. Briefly, 10 mL K2EDTA vacutainers were used to collect fresh blood from healthy donors (BD vacutainer, Catalog No: BD 367525). A total of 50 ml of blood was taken from a single, healthy human donor. Neutrophils were isolated from human blood using the EasySep Direct Human Neutrophil Isolation Kit, according to the manufacturer's instructions (Stem Cell Technology, Catalog No: 19666). For investigations conducted at Boston Children’s Hospital, experimental procedure was approved by the Office of Clinical Investigations at Boston Children’s Hospital (protocol number IRB-P00003283). […]
The CellTiter-Glo luminescent cell viability assay was performed on neutrophils/peripheral blood mononuclear cells according to the manufacturer’s instructions (Promega, catalog number: G7570)[35]. […] Luminescence was recorded with Perkin Elmer envision 2103 multilabel reader.

[4] = Solubility; format: physicochemical
From the text: Supplement 41598_2023_30246_MOESM1_ESM.docx, table 2: Supplementary Table S2. In vitro ADME parameters of JBI-589 | column: 90

[5] = Microsomal stability, DLM; format: in vitro ADME, dog; details: 1 µM, liver microsomes 0.5 mg/mL; one range given for HLM/MLM/DLM/RLM
Procedure: Microsomal stability: Liver microsomes (0.5 mg/mL) from different species were incubated with JBI-589 (1 µM) with or without NADPH (1 mM) at 37 °C for 30 min in potassium phosphate buffer (pH 7.4) and then reaction was stopped with quenching solution (0.5% Formic acid in internal standard (IS) containing ACN). Resulting samples were centrifuged and supernatant was taken for LC–MS/MS analysis. Percent metabolism was calculated as follows: % Metabolized: [1 − (test area ratio/control area ratio)] *100.

## Cc1c(-c2cc3ccccc3n2Cc2ccc(F)cc2)nc2cc(C(=O)N3CCC[C@@H](N)C3)ccn12 [JBI-589, (R)-(3-aminopiperidin-1-yl)(2-(1-(4-fluorobenzyl)-1H-indol-2-yl)-3-methylimidazo[1,2-a]pyridin-7-yl)methanone]
[1]
  inhibitory activity against PAD1: did not have any inhibitory activity
[2]
  inhibitory activity against PAD6: did not have any inhibitory activity
[3]
  viability of neutrophils: minimal or no changes
[4]
  solubility: 90 µM (≈ 43.3 µg/mL)
[5]
  DLM % metabolized @ 30 min: 25-50%
